Assay: In vitro thromboxane A2 antagonistic activity on aggregation of rabbit platelets induced by U-46,619 (4 uM)

Row | IC50 [µM] | Compound
1 | 7.76 | O=C(O)c1ccc2c(c1)CC(CCNS(=O)(=O)c1ccc(Cl)cc1)C2 (stereo unspecified) [Sodium; 2-[2-(4-chloro-benzenesulfonylamino)-ethyl]-indan-5-carboxylate]
2 | 6.6 | O=C(O)c1ccc2c(c1)CC(CCCNS(=O)(=O)c1ccc(Cl)cc1)C2 (stereo unspecified) [Sodium; 2-[3-(4-chloro-benzenesulfonylamino)-propyl]-indan-5-carboxylate]
3 | 100 | O=C(O)c1ccc2c(c1)CC(CCCCNS(=O)(=O)c1ccc(Cl)cc1)C2 (stereo unspecified) [Sodium; 2-[4-(4-chloro-benzenesulfonylamino)-butyl]-indan-5-carboxylate]
4 | 1.32 | O=C(O)c1ccc2c(c1)CC(CNS(=O)(=O)c1ccc(Cl)cc1)C2 (stereo unspecified) [Sodium; 2-[(4-chloro-benzenesulfonylamino)-methyl]-indan-5-carboxylate]
5 | 0.16 | O=C(O)CCc1ccc2c(c1)CC(CNS(=O)(=O)c1ccc(Cl)cc1)C2 (stereo unspecified) [Sodium; 3-{2-[(4-chloro-benzenesulfonylamino)-methyl]-indan-5-yl}-propionate]
6 | 1.34 | O=C(O)CCCc1ccc2c(c1)CC(CNS(=O)(=O)c1ccc(Cl)cc1)C2 (stereo unspecified) [Sodium; 4-{2-[(4-chloro-benzenesulfonylamino)-methyl]-indan-5-yl}-butyrate]
7 | 2.88 | O=C(O)CCCCc1ccc2c(c1)CC(CNS(=O)(=O)c1ccc(Cl)cc1)C2 (stereo unspecified) [Sodium; 5-{2-[(4-chloro-benzenesulfonylamino)-methyl]-indan-5-yl}-pentanoate]
8 | 0.36 | O=C(O)Cc1ccc2c(c1)CC(NS(=O)(=O)c1ccc(Cl)cc1)C2 (stereo unspecified) [Sodium; [2-(4-chloro-benzenesulfonylamino)-indan-5-yl]-acetate]
9 | 1.02 | O=C(O)Cc1ccc2c(c1)CC(CNS(=O)(=O)c1ccccc1)C2 (stereo unspecified) [Sodium; [2-(benzenesulfonylamino-methyl)-indan-5-yl]-acetate]
10 | 17.8 | O=C(O)Cc1ccc2c(c1)CC(CNS(=O)(=O)C1CCCCC1)C2 (stereo unspecified) [Sodium; [2-(cyclohexanesulfonylamino-methyl)-indan-5-yl]-acetate]
11 | > 100 | O=C(O)Cc1ccc2c(c1)CC(CNS(=O)(=O)Cc1ccccc1)C2 (stereo unspecified) [Sodium; [2-(phenylmethanesulfonylamino-methyl)-indan-5-yl]-acetate]
12 | 1.48 | O=C(O)Cc1ccc2c(c1)CC(CCNS(=O)(=O)c1ccc(Cl)cc1)C2 (stereo unspecified) [Sodium; {2-[2-(4-chloro-benzenesulfonylamino)-ethyl]-indan-5-yl}-acetate]
13 | 72.3 | O=C(O)Cc1ccc2c(c1)CC(CCCNS(=O)(=O)c1ccc(Cl)cc1)C2 (stereo unspecified) [Sodium; {2-[3-(4-chloro-benzenesulfonylamino)-propyl]-indan-5-yl}-acetate]
14 | > 100 | O=C(O)Cc1ccc2c(c1)CC(CCCCNS(=O)(=O)c1ccc(Cl)cc1)C2 (stereo unspecified) [Sodium; {2-[4-(4-chloro-benzenesulfonylamino)-butyl]-indan-5-yl}-acetate]
15 | 0.32 | O=C(O)Cc1ccc2c(c1)CC(CNS(=O)(=O)c1ccc(Cl)cc1)O2 (stereo unspecified) [Sodium; {2-[(4-chloro-benzenesulfonylamino)-methyl]-2,3-dihydro-benzofuran-5-yl}-acetate]
16 | 0.36 | O=C(O)Cc1ccc2c(c1)CC(CNS(=O)(=O)c1ccc(Cl)cc1)C2 (stereo unspecified) [Sodium; {2-[(4-chloro-benzenesulfonylamino)-methyl]-indan-5-yl}-acetate]
17 | 47.9 | O=C(O)Cc1ccc2c(c1)CC(CNS(=O)(=O)c1cccc3ccccc13)C2 (stereo unspecified) [Sodium; {2-[(naphthalene-1-sulfonylamino)-methyl]-indan-5-yl}-acetate]
18 | 0.95 | O=C(O)Cc1ccc2c(c1)CC(CNS(=O)(=O)c1ccc3ccccc3c1)C2 (stereo unspecified) [Sodium; {2-[(naphthalene-2-sulfonylamino)-methyl]-indan-5-yl}-acetate]
19 | 77.6 | CCCCCS(=O)(=O)NCC1Cc2ccc(CC(=O)O)cc2C1 (stereo unspecified) [Sodium; {2-[(pentane-1-sulfonylamino)-methyl]-indan-5-yl}-acetate]
20 | > 100 | O=C(O)Cc1ccc2c(c1)CC(CNS(=O)(=O)c1cccnc1)C2 (stereo unspecified) [Sodium; {2-[(pyridine-3-sulfonylamino)-methyl]-indan-5-yl}-acetate]
21 | 2.81 | O=C(O)Cc1ccc2c(c1)CC(CNS(=O)(=O)c1cccs1)C2 (stereo unspecified) [Sodium; {2-[(thiophene-2-sulfonylamino)-methyl]-indan-5-yl}-acetate]

— BindingDB's records for doi:10.1016/s0960-894x(99)00014-1 (Zeria Pharmaceutical, 1999)
